biological target: PARP7 (Homo sapiens (Human), UniProt Q7Z3E1); test: Enzymatic assay for inhibition of PARP7: TR-FRET displacement of biotinylated Probe A from the TIPARP active site; type: binding; settings: Table A-1
Summary of the method: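 Displacement of biotinylated Probe A from TIPARP was measured as the 665/615 nm time-resolved FRET ratio (excitation 320 nm, 90 μs delay) after a further 30 min at 25 °C. Inhibition across compound concentrations was fitted by dose-response regression, with the Hill slope free or fixed at 1 (3-parameter fit).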

PARP7, sequence (Q7Z3E1 whole entry): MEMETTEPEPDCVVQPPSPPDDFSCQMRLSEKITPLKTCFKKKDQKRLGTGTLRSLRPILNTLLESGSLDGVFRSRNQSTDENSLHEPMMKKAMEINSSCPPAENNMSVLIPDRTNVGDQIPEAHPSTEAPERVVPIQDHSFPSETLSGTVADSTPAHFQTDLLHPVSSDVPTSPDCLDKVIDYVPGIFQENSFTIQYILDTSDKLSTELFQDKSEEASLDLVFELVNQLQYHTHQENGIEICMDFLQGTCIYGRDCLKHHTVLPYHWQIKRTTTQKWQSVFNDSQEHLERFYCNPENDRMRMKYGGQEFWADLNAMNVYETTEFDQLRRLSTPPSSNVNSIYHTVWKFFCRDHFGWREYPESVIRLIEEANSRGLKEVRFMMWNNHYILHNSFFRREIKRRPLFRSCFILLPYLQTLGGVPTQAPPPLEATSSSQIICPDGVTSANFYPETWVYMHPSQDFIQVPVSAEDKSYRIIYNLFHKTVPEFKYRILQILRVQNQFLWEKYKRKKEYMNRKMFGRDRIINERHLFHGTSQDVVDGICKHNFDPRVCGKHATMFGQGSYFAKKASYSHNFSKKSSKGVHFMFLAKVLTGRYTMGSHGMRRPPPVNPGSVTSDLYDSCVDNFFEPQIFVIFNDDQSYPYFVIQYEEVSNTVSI

IC50	SMILES
< 100 nM	CC(=O)N1CCC(COc2cc3c(cc2F)CN(c2cn[nH]c(=O)c2C(F)(F)F)C3)CC1 [Example 21, 5-[5-[(1-acetylpiperidin-4-yl)methoxy]-6-fluoro-2,3-dihydro-1H-isoindol-2-yl]-4-(trifluoromethyl)-2,3-dihydropyridazin-3-one]
< 100 nM	CN1CCC(COc2cc3c(cc2F)CN(c2cn[nH]c(=O)c2C(F)(F)F)C3)CC1 [Example 22, 5-[5-fluoro-6-[(1-methylpiperidin-4-yl)methoxy]-2,3-dihydro-1H-isoindol-2-yl]-4-(trifluoromethyl)-2,3-dihydropyridazin-3-one]
< 100 nM	O=c1[nH]ncc(N2Cc3cc(F)c(CNC4CCNCC4)cc3C2)c1C(F)(F)F [Example 23, 5-(5-fluoro-6-[[(piperidin-4-yl)amino]methyl]-2,3-dihydro-1H-isoindol-2-yl)-4-(trifluoromethyl)-2,3-dihydropyridazin-3-one]
< 100 nM	CC(=O)N1CCC(NCc2cc3c(cc2F)CN(c2cn[nH]c(=O)c2C(F)(F)F)C3)CC1 [Example 24, 5-(5-[[(1-acetylpiperidin-4-yl)amino]methyl]-6-fluoro-2,3-dihydro-1H-isoindol-2-yl)-4-(trifluoromethyl)-2,3-dihydropyridazin-3-one]
< 100 nM	CN1CCC(NCc2cc3c(cc2F)CN(c2cn[nH]c(=O)c2C(F)(F)F)C3)CC1 [Example 25, 5-(5-fluoro-6-[[(1-methylpiperidin-4-yl)amino]methyl]-2,3-dihydro-1H-isoindol-2-yl)-4-(trifluoromethyl)-2,3-dihydropyridazin-3-one]
< 100 nM	O=c1[nH]ncc(N2Cc3cc(F)c(N4CCOCC4)cc3C2)c1C(F)(F)F [Example 26, 5-[5-fluoro-6-(morpholin-4-yl)-2,3-dihydro-1H-isoindol-2-yl]-4-(trifluoromethyl)-2,3-dihydropyridazin-3-one]
100 to 1000 nM	O=c1[nH]ncc(N2Cc3cccc(OC4CCN(C(c5ccccc5)c5ccccc5)CC4)c3C2)c1C(F)(F)F [Example 27, 5-(4-[[1-(diphenylmethyl)piperidin-4-yl]oxy]-2,3-dihydro-1H-isoindol-2-yl)-4-(trifluoromethyl)-2,3-dihydropyridazin-3-one]
< 100 nM	O=c1[nH]ncc(N2Cc3ccc(OC4CCN(C(c5ccccc5)c5ccccc5)CC4)cc3C2)c1C(F)(F)F [Example 28, 5-(5-[[1-(diphenylmethyl)piperidin-4-yl]oxy]-2,3-dihydro-1H-isoindol-2-yl)-4-(trifluoromethyl)-2,3-dihydropyridazin-3-one]
< 100 nM	CN(CCOc1cccc(C(=O)N2CCN(c3ccc(C#N)cn3)CC2)c1)c1cn[nH]c(=O)c1C(F)(F)F [Example 29, 6-(4-[[3-(2-[methyl[6-oxo-5-(trifluoromethyl)-1,6-dihydropyridazin-4-yl]amino]ethoxy)phenyl]carbonyl]piperazin-1-yl)pyridine-3-carbonitrile]
≥ 1000 nM	N#Cc1ccc(N2CCN(C(=O)c3cccc(OC[C@H]4CCCN4c4cn[nH]c(=O)c4C(F)(F)F)c3)CC2)nc1 [Example 31, 6-[4-[(3-[[(2R)-1-[6-oxo-5-(trifluoromethyl)-1,6-dihydropyridazin-4-yl]pyrrolidin-2-yl]methoxy]phenyl)carbonyl]piperazin-1-yl]pyridine-3-carbonitrile]
< 100 nM	N#Cc1ccc(N2CCN(C(=O)c3cccc(OC[C@@H]4CCCN4c4cn[nH]c(=O)c4C(F)(F)F)c3)CC2)nc1 [Example 32, 6-[4-[(3-[[(2S)-1-[6-Oxo-5-(trifluoromethyl)-1,6-dihydropyridazin-4-yl]pyrrolidin-2-yl]methoxy]phenyl)carbonyl]piperazin-1-yl]pyridine-3-carbonitrile]
< 100 nM	N#Cc1ccc(N2CCN(C(=O)c3cccc(OC[C@@H]4CCCN4c4cn[nH]c(=O)c4C(F)(F)F)c3)C(CO)C2)nc1 (stereo partly shown) [Example 33]
< 100 nM	N#Cc1ccc(N2CCN(C(=O)c3cccc(OC[C@@H]4CCCN4c4cn[nH]c(=O)c4C(F)(F)F)c3)CC2=O)nc1 [Example 34, 6-[2-oxo-4-[(3-[[(2S)-1-[6-oxo-5-(trifluoromethyl)-1,6-dihydropyridazin-4-yl]pyrrolidin-2-yl]methoxy]phenyl)carbonyl]piperazin-1-yl]pyridine-3-carbonitrile]
< 100 nM	CC[C@@H](COCCC(=O)N1CCN(c2ncc(C(F)(F)F)cn2)CC1)Oc1cn[nH]c(=O)c1C(F)(F)F [Example 37, 5-[[(2S)-1-(3-Oxo-3-[4-[5-(trifluoromethyl)pyrimidin-2-yl]piperazin-1-yl]propoxy)butan-2-yl]oxy]-4-(trifluoromethyl)-2,3-dihydropyridazin-3-one]
< 100 nM	N#Cc1ccc(N2CCN(C(=O)c3ccnc(OC[C@H]4c5ccccc5CN4c4cn[nH]c(=O)c4C(F)(F)F)n3)CC2)nc1 [Example 38 Isomer B, 6-[4-[(2-[[(1R)-2-[6-Oxo-5-(trifluoromethyl)-1,6-dihydropyridazin-4-yl]-2,3-dihydro-1H-isoindol-1-yl]methoxy]pyrimidin-4-yl)carbonyl]piperazin-1-yl]pyridine-3-carbonitrile]
100 to 1000 nM	N#Cc1ccc(N2CCN(C(=O)c3cccc(OCC4CCCCN4c4cn[nH]c(=O)c4C(F)(F)F)c3)CC2)nc1 (stereo not shown) [Example 40, 6-(4-[[3-([1-[6-oxo-5-(trifluoromethyl)-1,6-dihydropyridazin-4-yl]piperidin-2-yl]methoxy)phenyl]carbonyl]piperazin-1-yl)pyridine-3-carbonitrile]
< 100 nM	N#Cc1ccc(N2CCN(C(=O)c3cccc(OCCNc4cn[nH]c(=O)c4C(F)(F)F)c3)CC2)nc1 [Example 41, 6-(4-[[3-(2-[[6-oxo-5-(trifluoromethyl)-1,6-dihydropyridazin-4-yl]amino]ethoxy)phenyl]carbonyl]piperazin-1-yl)pyridine-3-carbonitrile]
< 100 nM	N#Cc1ccc(N2CCN(C(=O)c3cccc(OCCOc4cn[nH]c(=O)c4C(F)(F)F)c3)CC2)nc1 [Example 42, 6-(4-[[3-(2-[[6-oxo-5-(trifluoromethyl)-1,6-dihydropyridazin-4-yl]oxy]ethoxy)phenyl]carbonyl]piperazin-1-yl)pyridine-3-carbonitrile]
< 100 nM	N#Cc1ccc(N2CCN(C(=O)c3ccc(OCCOc4cccc5c4CN(c4cn[nH]c(=O)c4C(F)(F)F)C5)cc3)CC2)nc1 [Example 43, 6-[4-([4-[2-([2-[6-oxo-5-(trifluoromethyl)-1,6-dihydropyridazin-4-yl]-2,3-dihydro-1H-isoindol-4-yl]oxy)ethoxy]phenyl]carbonyl)piperazin-1-yl]pyridine-3-carbonitrile]
< 100 nM	O=c1[nH]ncc(N2Cc3cc(F)c(OCC4CCCNC4)cc3C2)c1C(F)(F)F (stereo not shown) [Example 44, 5-[5-fluoro-6-(piperidin-3-ylmethoxy)-2,3-dihydro-1H-isoindol-2-yl]-4-(trifluoromethyl)-2,3-dihydropyridazin-3-one]
< 100 nM	CC(=O)N1CCCC(COc2cc3c(cc2F)CN(c2cn[nH]c(=O)c2C(F)(F)F)C3)C1 (stereo not shown) [Example 45, 5-[5-[(1-acetylpiperidin-3-yl)methoxy]-6-fluoro-2,3-dihydro-1H-isoindol-2-yl]-4-(trifluoromethyl)-2,3-dihydropyridazin-3-one]
< 100 nM	N#Cc1ccc(N2CCN(C(=O)c3nccc(OCC4c5ccccc5CN4c4cn[nH]c(=O)c4C(F)(F)F)n3)CC2)nc1 (stereo not shown) [Example 46, 6-(4-[[4-([2-[6-oxo-5-(trifluoromethyl)-1,6-dihydropyridazin-4-yl]-2,3-dihydro-1H-isoindol-1-yl]methoxy)pyrimidin-2-yl]carbonyl]piperazin-1-yl)pyridine-3-carbonitrile]
< 100 nM	N#Cc1ccc(OC2CCC(NC(=O)COC[C@@H]3CCCN3c3cn[nH]c(=O)c3C(F)(F)F)CC2)nc1 (stereo partly drawn) [Example 47, N-[4-[(5-cyanopyridin-2-yl)oxy]cyclohexyl]-2-[[(2S)-1-[6-oxo-5-(trifluoromethyl)-1,6-dihydropyridazin-4-yl]pyrrolidin-2-yl]methoxy]acetamide]
< 100 nM	O=c1[nH]ncc(N2Cc3cc(F)c(OCC4CCCN4)cc3C2)c1C(F)(F)F (stereo not shown) [Example 48, 5-[5-fluoro-6-(pyrrolidin-2-ylmethoxy)-2,3-dihydro-1H-isoindol-2-yl]-4-(trifluoromethyl)-2,3-dihydropyridazin-3-one]
< 100 nM	CC(=O)N1CCCC1COc1cc2c(cc1F)CN(c1cn[nH]c(=O)c1C(F)(F)F)C2 (stereo not shown) [Example 50, 5-[5-[(1-acetylpyrrolidin-2-yl)methoxy]-6-fluoro-2,3-dihydro-1H-isoindol-2-yl]-4-(trifluoromethyl)-2,3-dihydropyridazin-3-one]
< 100 nM	N#Cc1ccc(N2CCN(C(=O)c3cccc(OC[C@@H]4C[C@H](O)CN4c4cn[nH]c(=O)c4C(F)(F)F)c3)CC2)nc1 [Example 51]
< 100 nM	O=c1[nH]ncc(N2Cc3cc(F)c(OC4CCNC4)cc3C2)c1C(F)(F)F (stereo not shown) [Example 53, 5-(5-fluoro-6-(pyrrolidin-3-yloxy)isoindolin-2-yl)-4-(trifluoromethyl)pyridazin-3(2H)-one]
< 100 nM	CC(=O)N1CCC(Oc2cc3c(cc2F)CN(c2cn[nH]c(=O)c2C(F)(F)F)C3)C1 (stereo not shown) [Example 54, 5-(5-(1-acetylpyrrolidin-3-yloxy)-6-fluoroisoindolin-2-yl)-4-(trifluoromethyl)pyridazin-3(2H)-one]
< 100 nM	CN1CCC(Oc2cc3c(cc2F)CN(c2cn[nH]c(=O)c2C(F)(F)F)C3)C1 (stereo not shown) [Example 55, 5-[5-fluoro-6-[(1-methylpyrrolidin-3-yl)oxy]-2,3-dihydro-1H-isoindol-2-yl]-4-(trifluoromethyl)-2,3-dihydropyridazin-3-one]

SMILES	IC50
CN1CCCC1COc1cc2c(cc1F)CN(c1cn[nH]c(=O)c1C(F)(F)F)C2 (stereo not shown) [Example 49, 5-[5-fluoro-6-[(1-methylpyrrolidin-2-yl)methoxy]-2,3-dihydro-1H-isoindol-2-yl]-4-(trifluoromethyl)-2,3-dihydropyridazin-3-one; formic acid]	< 100 nM
N#Cc1ccc(N2CCN(C(=O)c3cccc(OC[C@@H]4C[C@@H](O)CN4c4cn[nH]c(=O)c4C(F)(F)F)c3)CC2)nc1 [Example 52]	< 100 nM

— patent US10550105B2 (Ribon Therapeutics Inc., priority 2018, dated 2020)
